Laboratory results from PMC8445441, “Elucidating the mechanism by which synthetic helper peptides sensitize Pseudomonas aeruginosa to multiple antibiotics” (PLoS Pathogens, 2021).
Read-outs that look alike come from different tables or passages of the source.

What was measured:
P. aeruginosa AUMC-Pa-3 = experiment: microbe, parasite or virus in culture; conditions: for MIC: Pseudomonas aeruginosa, AUMCPA3, 18 h, read-out: MICa: MIC of the antibiotic; for FICI / MICac: MIC of the antibiotic in the combination: strain AUMC-Pa-3; for FICI: antibiotic + D-11 (MICb/MICbc 128/4); for MICac: MIC of the antibiotic in the combination: with D-11 at MICbc 4, unit not given
Procedure, shortened: (§1)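 Triplicate microdilution MICs: MHB, two-fold series, equal-volume inoculum from ~1 × 10^6 CFU/mL suspension, 37 °C, 18 h, lowest concentration lacking visible growth.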

P. aeruginosa AUMC-Pa-4 = experiment: microbe, parasite or virus in culture; conditions: for MIC: Pseudomonas aeruginosa, AUMCPA4, 18 h, read-out: MICa: MIC of the antibiotic; for FICI / MICac: MIC of the antibiotic in the combination: strain AUMC-Pa-4; for FICI: antibiotic + D-11 (MICb/MICbc 128/4); for MICac: MIC of the antibiotic in the combination: with D-11 at MICbc 4, unit not given
Procedure, shortened: as §1

P. aeruginosa AUMC-Pa-5 = experiment: microbe, parasite or virus in culture; conditions: for MIC: Pseudomonas aeruginosa, AUMCPA5, 18 h, read-out: MICa: MIC of the antibiotic; for FICI / MICac: MIC of the antibiotic in the combination: strain AUMC-Pa-5; for FICI: antibiotic + D-11 (MICb/MICbc 64/4); for MICac: MIC of the antibiotic in the combination: with D-11 at MICbc 4, unit not given
Procedure, shortened: as §1

P. aeruginosa AUMC-Pa-6 = experiment: microbe, parasite or virus in culture; conditions: for MIC: Pseudomonas aeruginosa, AUMCPA6, 18 h, read-out: MICa: MIC of the antibiotic; for FICI / MICac: MIC of the antibiotic in the combination: strain AUMC-Pa-6; for FICI: antibiotic + D-11 (MICb/MICbc 64/4); for MICac: MIC of the antibiotic in the combination: with D-11 at MICbc 4, unit not given
Procedure, shortened: as §1

P. aeruginosa PAO1 = experiment: microbe, parasite or virus in culture; conditions: PAO1; for MIC: Pseudomonas aeruginosa, PAO1, 18 h, read-out: MICa: the MIC of antibiotics, S3 Table, antibiotic alone; for FICI / MICac: the MIC for the antibiotic in the combination: S3 Table
Procedure, shortened: as §1

P. aeruginosa ATCC27853 = experiment: microbe, parasite or virus in culture; parameters: MICa: MIC of the antibiotic / MICac: MIC of the antibiotic in the combination: unit not given beside the values; conditions: for MIC: Pseudomonas aeruginosa, ATCC27853, 18 h, read-out: MICa: MIC of the antibiotic; for FICI / MICac: MIC of the antibiotic in the combination: strain ATCC27853; for FICI: antibiotic + D-11 (MICb/MICbc 32/4); for MICac: MIC of the antibiotic in the combination: with D-11 at MICbc 4, unit not given
Procedure, shortened: as §1

P. aeruginosa NR-31040 = experiment: microbe, parasite or virus in culture; parameters: MICa: MIC of the antibiotic / MICac: MIC of the antibiotic in the combination: unit not given beside the values; conditions: for MIC: Pseudomonas aeruginosa, NR31040, 18 h, read-out: MICa: MIC of the antibiotic; for FICI / MICac: MIC of the antibiotic in the combination: strain NR-31040; for FICI: antibiotic + D-11 (MICb/MICbc 128/4); for MICac: MIC of the antibiotic in the combination: with D-11 at MICbc 4, unit not given
Procedure, shortened: as §1

P. aeruginosa NR-31041 = experiment: microbe, parasite or virus in culture; parameters: MICa: MIC of the antibiotic / MICac: MIC of the antibiotic in the combination: unit not given beside the values; conditions: for MIC: Pseudomonas aeruginosa, NR31041, 18 h, read-out: MICa: MIC of the antibiotic; for FICI / MICac: MIC of the antibiotic in the combination: strain NR-31041; for FICI: antibiotic + D-11 (MICb/MICbc 64/4); for MICac: MIC of the antibiotic in the combination: with D-11 at MICbc 4, unit not given
Procedure, shortened: as §1

P. aeruginosa PA14 = experiment: microbe, parasite or virus in culture; parameters: MICa: MIC of the antibiotic / MICac: MIC of the antibiotic in the combination: unit not given beside the values; conditions: for MIC: Pseudomonas aeruginosa, PA14, 18 h, read-out: MICa: MIC of the antibiotic; for FICI / MICac: MIC of the antibiotic in the combination: strain PA14; for FICI: antibiotic + D-11 (MICb/MICbc 128/4); for MICac: MIC of the antibiotic in the combination: with D-11 at MICbc 4, unit not given
Procedure, shortened: as §1

P. aeruginosa PAK = experiment: microbe, parasite or virus in culture; parameters: MICa: MIC of the antibiotic / MICac: MIC of the antibiotic in the combination: unit not given beside the values; conditions: for MIC: Pseudomonas aeruginosa, 18 h, read-out: MICa: MIC of the antibiotic; for FICI / MICac: MIC of the antibiotic in the combination: strain PAK; for FICI: antibiotic + D-11 (MICb/MICbc 64/4); for MICac: MIC of the antibiotic in the combination: with D-11 at MICbc 4, unit not given
Procedure, shortened: as §1

P. aeruginosa HM-214 = conditions: strain HM-214; antibiotic + D-11 (MICb/MICbc 128/4)
Procedure, shortened: as §1

P. aeruginosa AUMC-Pa-1 = conditions: strain AUMC-Pa-1; antibiotic + D-11 (MICb/MICbc 128/4)
Procedure, shortened: as §1

P. aeruginosa AUMC-Pa-2 = conditions: strain AUMC-Pa-2; antibiotic + D-11 (MICb/MICbc 64/4)
Procedure, shortened: as §1

[1] = test system: clinical P. aeruginosa isolates; experiment: microbe, parasite or virus in culture; conditions: Pseudomonas aeruginosa, 18 h, antibiotic alone
Procedure, shortened: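 MIC is the lowest drug concentration showing no visible growth after 18 h at 37 °C. Two-fold dilutions in MHB were combined with an equal volume of bacterial suspension (about 1 × 10^6 CFU/mL), following CLSI broth microdilution, in triplicate.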

[2] = read-out: Antibiotic sensibility (MIC) of clinical P. aeruginosa isolate AUMC-Pa-1, strain AUMC-Pa-1
[3] = read-out: Antibiotic sensibility (MIC) of clinical P. aeruginosa isolate AUMC-Pa-2, strain AUMC-Pa-2
[4] = read-out: Antibiotic sensibility (MIC) of clinical P. aeruginosa isolate AUMC-Pa-3, strain AUMC-Pa-3
[5] = read-out: Antibiotic sensibility (MIC) of clinical P. aeruginosa isolate AUMC-Pa-4, strain AUMC-Pa-4
[6] = read-out: Antibiotic sensibility (MIC) of clinical P. aeruginosa isolate AUMC-Pa-5, strain AUMC-Pa-5
[7] = read-out: Antibiotic sensibility (MIC) of clinical P. aeruginosa isolate AUMC-Pa-6, strain AUMC-Pa-6
[8] = read-out: Antibiotic sensibility (MIC) of clinical P. aeruginosa isolate HM-214, strain HM-214
[9] = read-out: Antibiotic sensibility (MIC) of clinical P. aeruginosa isolate NR-31040, strain NR-31040
[10] = read-out: Antibiotic sensibility (MIC) of clinical P. aeruginosa isolate NR-31041, strain NR-31041

For `CCn1cc(C(=O)O)c(=O)c2ccc(C)nc21` [Nalidixic Acid], the MIC (P. aeruginosa AUMC-Pa-3) was > 128 µM, the FICI (P. aeruginosa AUMC-Pa-3) was 0.063 and the “MICac: MIC of the antibiotic in the combination” value (shortened to “MICac: MIC of the antibiotic”) (P. aeruginosa AUMC-Pa-3) was 8. For the same compound, the MIC (P. aeruginosa AUMC-Pa-4) was > 128 µM, the FICI (P. aeruginosa AUMC-Pa-4) was 0.531 and the “MICac: MIC of the antibiotic” value (P. aeruginosa AUMC-Pa-4) was >128/128. The MIC (P. aeruginosa AUMC-Pa-5) was > 128 µM, the FICI (P. aeruginosa AUMC-Pa-5) was 1.063 and the “MICac: MIC of the antibiotic” value (P. aeruginosa AUMC-Pa-5) was >128/>128. For the same compound, the MIC (P. aeruginosa AUMC-Pa-6) was > 128 µM, the FICI (P. aeruginosa AUMC-Pa-6) was 0.188 and the “MICac: MIC of the antibiotic” value (P. aeruginosa AUMC-Pa-6) was 32. The MIC (P. aeruginosa PAO1) was > 128 µM, the FICI (P. aeruginosa PAO1; antibiotic + 2 μM D-11) was 0.094 and the FICI (P. aeruginosa PAO1; antibiotic + 4 μM D-11) was 0.141. The “MICac: the MIC for the antibiotic in the combination” value (“MICac: the MIC for the antibiotic” below) (P. aeruginosa PAO1; with 2 μM D-11) was 8 µM, the “MICac: the MIC for the antibiotic” value (P. aeruginosa PAO1; with 4 μM D-11) was 4 µM and the MIC (P. aeruginosa ATCC27853) was > 128 µM. The FICI (P. aeruginosa ATCC27853) was 0.156, the “MICac: MIC of the antibiotic” value (P. aeruginosa ATCC27853) was 8 and the MIC (P. aeruginosa NR-31040) was > 128 µM. The FICI (P. aeruginosa NR-31040) was 0.063, the “MICac: MIC of the antibiotic” value (P. aeruginosa NR-31040) was 8 and the MIC (P. aeruginosa NR-31041) was > 128 µM. The FICI (P. aeruginosa NR-31041) was 0.125, the “MICac: MIC of the antibiotic” value (P. aeruginosa NR-31041) was 16 and the MIC (P. aeruginosa PA14) was > 128 µM. For the same compound, the FICI (P. aeruginosa PA14) was 0.094, the “MICac: MIC of the antibiotic” value (P. aeruginosa PA14) was 16 and the MIC (P. aeruginosa PAK) was > 128 µM. For the same compound, the FICI (P. aeruginosa PAK) was 0.125, the “MICac: MIC of the antibiotic” value (P. aeruginosa PAK) was 16 and the FICI (P. aeruginosa HM-214) was 0.531. For the same compound, the FICI (P. aeruginosa AUMC-Pa-1) was 0.531, the FICI (P. aeruginosa AUMC-Pa-2) was 0.188 and the MIC [1, 2] was > 128 µM. For the same compound, the MIC [1, 3] was > 128 µM, the MIC [1, 4] was > 128 µM and the MIC [1, 5] was > 128 µM. The MIC [1, 6] was > 128 µM, the MIC [1, 7] was > 128 µM and the MIC [1, 8] was > 128 µM. The MIC [1, 9] was > 128 µM and the MIC [1, 10] was > 128 µM.
For `CO[C@@H]1[C@@H](OC(N)=O)[C@@H](O)[C@H](Oc2ccc3c(O)c(NC(=O)c4ccc(O)c(CC=C(C)C)c4)c(=O)oc3c2C)OC1(C)C` [Novobiocin], the MIC (P. aeruginosa AUMC-Pa-3) was > 128 µM, the FICI (P. aeruginosa AUMC-Pa-3) was 0.033 and the “MICac: MIC of the antibiotic” value (P. aeruginosa AUMC-Pa-3) was 0.5. The MIC (P. aeruginosa AUMC-Pa-4) was > 128 µM, the FICI (P. aeruginosa AUMC-Pa-4) was 0.531 and the “MICac: MIC of the antibiotic” value (P. aeruginosa AUMC-Pa-4) was >128/128. The MIC (P. aeruginosa AUMC-Pa-5) was > 128 µM, the FICI (P. aeruginosa AUMC-Pa-5) was 0.563 and the “MICac: MIC of the antibiotic” value (P. aeruginosa AUMC-Pa-5) was >128/128. For the same compound, the MIC (P. aeruginosa AUMC-Pa-6) was > 128 µM, the FICI (P. aeruginosa AUMC-Pa-6) was 0.563 and the “MICac: MIC of the antibiotic” value (P. aeruginosa AUMC-Pa-6) was >128/128. The “reduction of the MICs” value (P. aeruginosa PAO1; in the presence of 4 μM of D-11) was 512 fold, the MIC (P. aeruginosa PAO1) was > 128 µM and the FICI (P. aeruginosa PAO1; antibiotic + 2 μM D-11) was 0.064. The “MICac: the MIC for the antibiotic” value (P. aeruginosa PAO1; with 2 μM D-11) was 0.5 µM, the “MICac: the MIC for the antibiotic” value (P. aeruginosa PAO1; with 4 μM D-11) was 0.5 µM and the MIC (P. aeruginosa ATCC27853) was > 128 µM. The FICI (P. aeruginosa ATCC27853) was 0.133, the “MICac: MIC of the antibiotic” value (P. aeruginosa ATCC27853) was 2 and the MIC (P. aeruginosa NR-31040) was > 128 µM. The FICI (P. aeruginosa NR-31040) was 0.281, the “MICac: MIC of the antibiotic” value (P. aeruginosa NR-31040) was 64 and the MIC (P. aeruginosa NR-31041) was > 128 µM. For the same compound, the FICI (P. aeruginosa NR-31041) was 0.078, the “MICac: MIC of the antibiotic” value (P. aeruginosa NR-31041) was 4 and the MIC (P. aeruginosa PA14) was > 128 µM. The FICI (P. aeruginosa PA14) was 0.063, the “MICac: MIC of the antibiotic” value (P. aeruginosa PA14) was 8 and the MIC (P. aeruginosa PAK) was > 128 µM. For the same compound, the FICI (P. aeruginosa PAK) was 0.070, the “MICac: MIC of the antibiotic” value (P. aeruginosa PAK) was 2 and the FICI (P. aeruginosa HM-214) was 0.531. For the same compound, the FICI (P. aeruginosa AUMC-Pa-1) was 0.035, the FICI (P. aeruginosa AUMC-Pa-2) was 0.070 and the MIC [1, 2] was > 128 µM. The MIC [1, 3] was > 128 µM, the MIC [1, 4] was > 128 µM and the MIC [1, 5] was > 128 µM. For the same compound, the MIC [1, 6] was > 128 µM, the MIC [1, 7] was > 128 µM and the MIC [1, 8] was > 128 µM. The MIC [1, 9] was > 128 µM and the MIC [1, 10] was > 128 µM.
